{"source": "patent US9139574B2", "about": "“Tumor targeted drug combretastatin A4 derivative” (Nanjing Sanhome Pharmaceutical Co., Ltd., priority 2011, dated 2015)", "key": {"K562": {"system": "K562", "assay": "MTT assay of anti-tumor activity, K562", "assay_type": "cell-based", "conditions": "Homo sapiens, K562, 72 h, K562 cells", "method": "(§1) The cells were digested and counted. The cell suspension was prepared in a concentration of 5×10^4 cells/ml. 100 μL of the cell suspension per well was added into 96-well plates (5×10^3 cells per well). The 96-well plates were placed in a 5% CO2 incubator at 37° C. for 24 hours. The drugs were diluted with the complete medium to the desired concentrations. 100 μL of the corresponding drug-containing medium was added into each well. Negative control group, vehicle control group and positive control group were set. The 96-well plates were placed in 5% CO2 incubator at 37° C. for 72 hours. The 96-well plates were subjected to a MTT assay, and measured OD value at λ=490 nm. The measurement procedure comprises adding 20 μL MTT (5 mg/ml) for each well, incubating for 4 hours in an incubator, discarding the medium, dissolving by adding 150 μL DMSO into each well, mixing uniformly by rocking gently for 10 minutes on a shaker, reading OD value of each well in a microplate reader at λ=490 nm. The inhibition rate was calculated, the results were recorded, and the anti-tumor activity was assessed."}, "MCF-7": {"system": "MCF-7", "assay": "MTT assay of anti-tumor activity, MCF-7", "assay_type": "cell-based", "conditions": "Homo sapiens, MCF7, 72 h, MCF-7 cells", "method": "as §1"}, "HCT-116": {"system": "HCT-116", "assay": "MTT assay of anti-tumor activity, HCT-116", "assay_type": "cell-based", "conditions": "Homo sapiens, HCT-116, 72 h, HCT-116 cells", "method": "as §1"}, "NCI-H460": {"system": "NCI-H460", "assay": "MTT assay of anti-tumor activity, NCI-H460", "assay_type": "cell-based", "conditions": "Homo sapiens, NCI-H460, 72 h, NCI-H460 cells", "method": "as §1"}, "tubulin": {"system": "tubulin", "assay": "Inhibitory activity on tubulin polymerization (kit BK011P, Cytoskeleton)", "assay_type": "biochemical", "conditions": "37° C., 60 minutes, fluorescence, Vmax", "method": "The compounds were formulated into six different concentrations (0.03, 0.3, 0.9, 3, 9, 30 μM). The tubulin polymerization assay kit (Cat. # BK011P, Cytoskeleton) was used for testing. The samples were incubated at 37° C. for 60 minutes, and then fluorescence was collected using Gemini EM Fluorescence Microplate Reader collected at 410-460 nm. Vmax was calculated using SOFTMAX® PRO microplate data acquisition & analysis software. The tubulin inhibition (IC50) of the compound was calculated using GRAPHPAD PRISM® v5.01 graphing and statistics software."}, "[1]": {"assay": "Pharmacokinetics of Compound C128 liposome in rats", "assay_type": "in vivo", "conditions": "C128 liposomes, 10 mg/kg tail vein injection, plasma, non-compartmental; for Vd: male, SD, 10 mg/kg", "method": "C128 liposomes: (The liposome was prepared according to the conventional method in the pharmaceutical field, particle size 62.6 nm, polydispersity 0.532).\nSD male rats, with average weight of 200 g.\nChromatographic conditions: LC-20A high performance liquid chromatography, SPD-20A variable wavelength UV detector (Shimadzu Corporation, Japan); C18 pre-column; mobile phase: methanol/water (65/35, v/v); flow rate 1 mL/min; detection wavelength 283 nm; column temperature 40° C.\nThe blood was collected from the orbital sinus of rats and centrifuged for 10 minutes at 3000 r/min, and the plasma was separated. 200 μL of the plasma was accurately sampled, and placed in 1.5 mL EP tube. 600 μL acetonitrile was added. The tube was vortexed for 3 minutes, and centrifuged for 10 minutes at 16000 r/min. 20 μL supernatant was taken for injection of HPLC determination. Chromatograms and peak area were recorded.\nBlank plasma (280 μL) was accurately pipetted, and 20 μL of standard solutions of different concentrations of the drug was added to obtain the biological samples of different concentrations of the drug. The samples were treated and measured according to the aforementioned “Processing of the biological samples”. The chromatogram and the peak area were recorded. Linear regression was made by peak area A v.s concentration C (μg/mL) to obtain the standard working curve of Compound C128 in the biological samples.\nThree male rats were used, and administered via tail vein injection at a dose of 10 mg/kg. The blood was taken via the orbital sinus after administration of 5 min, 15 min, 30 min, 1 h, 2 h, 4 h, 6 h, 8 h, 10 h, respectively. The samples were treated and measured according to the aforementioned “Processing of the biological samples”. The chromatogram and the peak area were recorded. The measured amount, namely, the drug concentration in plasma, was calculated by putting the peak area of the drug into the standard working curve equation.\nThe time curve of the drug in plasma was drawn—the area under the plasma drug concentration-time curve (AUC) was calculated by the Log trapezoidal method."}}, "note": "Read-outs that look alike come from different tables or passages of the source.", "data": [{"smiles": "COc1cc(OC)cc(-c2nc[nH]c2-c2ccc(OC)c(F)c2)c1", "note": "[Compound C128, 4-(3,5-dimethoxyphenyl)-5-(3-fluoro-4-methoxyphenyl)imidazole]", "values": [{"measurement": "IC50", "setting": "K562", "value": 0.0019, "unit": "µM"}, {"measurement": "IC50", "setting": "MCF-7", "value": 0.001, "unit": "µM"}, {"measurement": "IC50", "setting": "HCT-116", "value": 0.11, "unit": "µM"}, {"measurement": "IC50", "setting": "NCI-H460", "value": 0.092, "unit": "µM"}, {"measurement": "IC50", "setting": "tubulin", "value": 0.59, "unit": "µM"}, {"measurement": "AUMC0-inf—obs", "setting": "[1]; SD male rats", "value": 7.569, "unit": "μg/ml*h^2"}, {"measurement": "Lambda—z", "setting": "[1]; SD male rats", "value": 0.833, "unit": "h⁻¹"}, {"measurement": "Vd", "setting": "[1]; rat, iv, read-out: Vss—obs", "value": 1.29, "unit": "L/kg"}, {"measurement": "Vd", "setting": "[1]; rat, iv, read-out: Vz—obs", "value": 1.57, "unit": "L/kg"}, {"measurement": "AUC(0-t)", "setting": "[1]; rat, iv, SD male rats", "value": 7.28, "unit": "µg·h/mL"}, {"measurement": "C0", "setting": "[1]; rat, iv, SD male rats", "value": 20.4, "unit": "µg/mL"}, {"measurement": "Cmax", "setting": "[1]; rat, iv, SD male rats", "value": 14.2, "unit": "µg/mL"}, {"measurement": "Tmax", "setting": "[1]; rat, iv, SD male rats", "value": 4.98, "unit": "min"}, {"measurement": "half-life", "setting": "[1]; rat, iv, SD male rats", "value": 50, "unit": "min"}, {"measurement": "AUC(0-inf)", "setting": "[1]; rat, iv, SD male rats, read-out: AUC0-inf—obs", "value": 7.77, "unit": "µg·h/mL"}, {"measurement": "clearance", "setting": "[1]; rat, iv, SD male rats, read-out: Cl—obs (converted)", "value": 1.3, "unit": "L/h/kg"}, {"measurement": "MRT inf", "setting": "[1]; rat, iv, SD male rats, read-out: MRT0-inf—obs", "value": 58.9, "unit": "min"}, {"measurement": "melting point", "value": "127.1 to 128.9", "unit": "°C"}]}]}
